These are literature values, as cited in patent publication US11369597B2, “Methods for treating pancreatic cancer using combination therapies” (Ipsen Biopharm Ltd., priority 2012, dated 2022).

Structures are written as SMILES. Like-named read-outs stand apart in the source and are kept apart here.

The conditions of data set [1]: metabolite formed by carboxylesterases.
The test system of data set [2] is advanced and metastatic pancreatic adenocarcinoma.
The subject of data set [3] is advanced pancreatic cancer. The following applies: first-line.
For data set [4] the following is noted: for incidence of grade 4 neutropenia: 350 mg/m^2 once every-3-weeks.

Consider `CCc1c2c(nc3ccc(O)cc13)-c1cc3c(c(=O)n1C2)COC(=O)[C@]3(O)CC` [SN-38], for which, in data set [1], the “SN-38 more active than irinotecan” value was 100-1000 fold.

With `Nc1ccn([C@@H]2O[C@H](CO)[C@@H](O)C2(F)F)c(=O)n1` [gemcitabine], in data set [2] (second line after 5-fluorouracil), the “median overall prolongation of survival” value is 3.9 months. Besides, the 1-year survival rate result in data set [2] (single-agent, first-line) is on record as “about 20%”; in data set [3] it was 17%. The median survival in data set [3] is recorded as 5.9 months.

Turning to `CCc1c2c(nc3ccc(OC(=O)N4CCC(N5CCCCC5)CC4)cc13)-c1cc3c(c(=O)n1C2)COC(=O)[C@]3(O)CC` [irinotecan, 7-ethyl-10-[4-(1-piperidino)-1-piperidino] carbonyloxycampothecin], the “incidence of grade 4 neutropenia” value is given as 12.5% in data set [4] (patients heterozygous (UGT1A1 6/7 genotype)) and 50% in data set [4] (patients homozygous for the UGT1A1*28 allele). In addition, the “grade 4 neutropenia” value in data set [4] (patients homozygous for the wild-type allele (UGT1A1 6/6 genotype)) is recorded as “no grade 4 neutropenia was observed”.
